Experimental data taken from patent US11912693B2, “Compounds for modulating S1P1 activity and methods of using the same” (TREVENA, INC., priority 2017, dated 2024).

Key:
[1] = molecular target: T1, human sphingosine-1-phosphate receptor 1 (S1P1) (Homo sapiens (Human), UniProt P21453); assay: Inhibition of cAMP production (HTRF cAMP HiRange), S1P1 CHO-K1 cells; type: cell-based; details: for Emax: CHO-K1, efficacy (SPAN) normalized to fingolimod, read-out: hS1P1 cAMP SPAN
Procedure, shortened: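 CHO-K1 cells stably co-expressing human S1P1 (C-terminal Prolink tag) and EA-β-arrestin2 were grown in AssayComplete Media 6 at 37° C. and 5% CO2, plated, and incubated overnight. Agonist-driven inhibition of intracellular cAMP was read by TR-FRET with the HTRF cAMP HiRange kit on a PheraStar reader. Potency is pEC50, and efficacy (SPAN) is normalized to fingolimod.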
Target sequence in this assay (P21453 whole entry, looked up): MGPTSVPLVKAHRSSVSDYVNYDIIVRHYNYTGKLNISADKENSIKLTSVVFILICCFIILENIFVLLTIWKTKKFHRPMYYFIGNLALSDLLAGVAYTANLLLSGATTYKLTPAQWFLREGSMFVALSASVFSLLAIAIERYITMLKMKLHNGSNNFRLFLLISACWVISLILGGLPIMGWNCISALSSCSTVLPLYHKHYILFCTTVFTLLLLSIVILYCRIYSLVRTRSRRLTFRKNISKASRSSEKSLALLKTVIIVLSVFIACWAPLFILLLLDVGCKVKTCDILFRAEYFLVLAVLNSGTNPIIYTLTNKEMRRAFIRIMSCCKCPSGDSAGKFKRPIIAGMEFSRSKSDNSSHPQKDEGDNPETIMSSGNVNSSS

[2] = molecular target: T1, human sphingosine-1-phosphate receptor 1 (S1P1); assay: β-Arrestin2 recruitment assay (PathHunter), S1P1 CHO-K1 cells; type: cell-based; details: for Emax: CHO-K1, efficacy (SPAN) normalized to fingolimod, read-out: hS1P1 B-arrestin2 SPAN
Procedure, shortened: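 Enzyme-fragment complementation read-out: agonist-driven β-arrestin2 binding to ProLink-tagged human S1P1 in stable CHO-K1 cells restores β-galactosidase, measured 1 h at room temperature after a 60 min 37° C. compound incubation. Potency as pEC50, efficacy relative to fingolimod (SPAN).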
Target sequence in this assay (P21453 whole entry, looked up): as above
Target sequence in this assay (P32121 whole entry partner, looked up): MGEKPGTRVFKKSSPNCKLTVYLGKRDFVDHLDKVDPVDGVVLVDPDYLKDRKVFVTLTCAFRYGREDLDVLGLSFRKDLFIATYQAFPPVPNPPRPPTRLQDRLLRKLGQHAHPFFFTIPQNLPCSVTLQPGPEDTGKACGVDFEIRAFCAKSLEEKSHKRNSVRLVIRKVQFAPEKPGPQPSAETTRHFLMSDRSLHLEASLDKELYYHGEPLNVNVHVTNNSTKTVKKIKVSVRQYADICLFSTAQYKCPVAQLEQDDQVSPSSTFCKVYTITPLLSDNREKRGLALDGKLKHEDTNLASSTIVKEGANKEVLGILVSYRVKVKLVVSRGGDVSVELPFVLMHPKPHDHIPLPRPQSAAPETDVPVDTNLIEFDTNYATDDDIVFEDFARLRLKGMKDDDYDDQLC

[3] = inhibition of cAMP production, S1P1 CHO-K1 cells
[4] = β-arrestin2 recruitment, S1P1 CHO-K1 cells

Row | SMILES | Emax [1] [%] | hS1P1 cAMP pEC50 [1, 3] | Emax [2] [%] | hS1P1 B-arrestin2 pEC50 [2, 4] | EC50 ([1]; inhibition of cAMP production, S1P1 CHO-K1 cells, read-out: hS1P1 cAMP pEC50 (converted)) [µM] | EC50 ([2]; β-arrestin2 recruitment, S1P1 CHO-K1 cells, read-out: hS1P1 B-arrestin2 pEC50 (converted)) [µM]
1 | CC(C)Nc1ccc(-c2nnc(-c3ccc4[nH]ncc4c3)o2)cc1C#N [Compound 351, 5-[5-(1H-indazol-5-yl)-1,3,4-oxadiazol-2-yl]-2-[(propan-2-yl)amino]benzonitrile] | > 75 | >6.5 | > 75 | >5 | – | –
2 | O=C1CC2(CCCC2)Oc2ccc(-c3nc(-c4ccncc4)no3)cc21 [Compound 176, 6-[3-(pyridin-4-yl)-1,2,4-oxadiazol-5-yl]-3,4-dihydrospiro[1-benzopyran-2,1′-cyclopentane]-4-one] | > 75 | <6.5 | < 75 | <5 | – | –
3 | Brc1ccccc1-c1noc(-c2ccc3c(c2)nnn3C2CCOCC2)n1 [Compound 233, 5-[3-(2-bromophenyl)-1,2,4-oxadiazol-5-yl]-1-(oxan-4-yl)-1H-1,2,3-benzotriazole] | < 75 | <6.5 | < 75 | <5 | – | –
4 | Cc1ccccc1-c1noc(-c2ccc3c(cnn3C(C)C)c2)n1 [Compound 329, 5-(1-isopropyl-1H-indazol-5-yl)-3-(o-tolyl)-1,2,4-oxadiazole] | > 75 | >6.5 | > 75 | >5 | – | –
5 | Cc1ccccc1C(C)c1noc(-c2ccc3c(c2)nnn3C(C)C)n1 (stereo not drawn) [Compound 172, 5-{3-[1-(2-methylphenyl)ethyl]-1,2,4-oxadiazol-5-yl}-1-(propan-2-yl)-1H-1,2,3-benzotriazole] | < 75 | <6.5 | < 75 | <5 | – | –
6 | CC(C)Cn1nnc2cc(-c3nc4c(Br)cccc4o3)ccc21 [Compound 461, 4-bromo-2-(1-isobutyl-1H-benzo[d][1,2,3]triazol-5-yl)benzo[d]oxazole] | > 75 | <6.5 | > 75 | <5 | – | –
7 | N#Cc1cc(-c2nc(-c3ccc4c(c3)CCC(=O)N4)no2)ccc1NCCF [Compound 343, 2-[(2-fluoroethyl)amino]-5-[3-(2-oxo-1,2,3,4-tetrahydroquinolin-6-yl)-1,2,4-oxadiazol-5-yl]benzonitrile] | > 75 | >6.5 | > 75 | >5 | – | –
8 | Clc1ncccc1-c1noc(-c2ccc3c(c2)nnn3CC2CC2)n1 [Compound 199, 5-[3-(2-chloropyridin-3-yl)-1,2,4-oxadiazol-5-yl]-1-(cyclopropylmethyl)-1H-1,2,3-benzotriazole] | < 75 | <6.5 | < 75 | <5 | – | –
9 | CC(C)n1nnc2cc(-c3nc(-c4cccs4)co3)ccc21 [Compound 459, 1-(propan-2-yl)-5-[4-(thiophen-2-yl)-1,3-oxazol-2-yl]-1H-1,2,3-benzotriazole] | > 75 | <6.5 | > 75 | <5 | – | –
10 | O=C1CC(CO)(CO)Oc2ccc(-c3nc(-c4cccnc4)no3)cc21 [Compound 478, 2,2-bis(hydroxymethyl)-6-[3-(pyridin-3-yl)-1,2,4-oxadiazol-5-yl]-3,4-dihydro-2H-1-benzopyran-4-one] | – | <6.5 | – | <5 | – | –
11 | CC(C)n1nnc2cc(-c3noc(C4CCC4)n3)ccc21 [Compound 18, 5-(5-cyclobutyl-1,2,4-oxadiazol-3-yl)-1-(propan-2-yl)-1H-1,2,3-benzotriazole] | – | <6.5 | – | <5 | – | –
12 | Cc1ccccc1C(C)c1noc(-c2ccc3c(c2)nnn3CC(C)C)n1 (stereo not drawn) [Compound 154, 5-{3-[1-(2-methylphenyl)ethyl]-1,2,4-oxadiazol-5-yl}-1-(2-methylpropyl)-1H-1,2,3-benzotriazole] | – | <6.5 | – | <5 | – | –
13 | Cn1cnc2ccc(-c3nnc(-c4ccc(NCC(F)(F)CO)c(C#N)c4)o3)cc21 [Compound 635, 2-[(2,2-difluoro-3-hydroxypropyl)amino]-5-[5-(1-methyl-1H-1,3-benzodiazol-6-yl)-1,3,4-oxadiazol-2-yl]benzonitrile] | – | >6.5 | – | >5 | – | –
14 | Cc1cc(-c2nc(-c3ccc4c(c3)nnn4C(C)C)no2)cnc1C [Compound 201, 5-(5,6-dimethylpyridin-3-yl)-3-(1-isopropyl-1H-benzo[d][1,2,3]triazol-5-yl)-1,2,4-oxadiazole] | – | <6.5 | – | <5 | – | –
15 | C=CCn1nc2ccc(-c3nc(-c4ccccc4)no3)cc2n1 [Compound 39, 5-(3-phenyl-1,2,4-oxadiazol-5-yl)-2-(prop-2-en-1-yl)-2H-1,2,3-benzotriazole] | – | <6.5 | – | <5 | – | –
16 | COc1ccc(-c2nc(-c3ccc4c(c3)nnn4C(C)C)no2)cc1 [Compound 69, 3-(1-isopropylbenzotriazol-5-yl)-5-(4-methoxyphenyl)-1,2,4-oxadiazole] | < 75 | <6.5 | < 75 | >5 | – | –
17 | CC(C)n1nnc2cc(-c3nc(-c4ccc5ccccc5n4)no3)ccc21 [Compound 168, 2-{5-[1-(propan-2-yl)-1H-1,2,3-benzotriazol-5-yl]-1,2,4-oxadiazol-3-yl}quinoline] | < 75 | <6.5 | < 75 | <5 | – | –
18 | Brc1ccccc1-c1nc(-c2ccc3c(c2)nnn3Cc2cccnc2)no1 [Compound 283, 5-(2-bromophenyl)-3-(1-(pyridin-3-ylmethyl)-1H-benzo[d][1,2,3]triazol-5-yl)-1,2,4-oxadiazole] | < 75 | <6.5 | < 75 | <5 | – | –
19 | FC(F)(F)c1cccc(-c2noc(-c3ccc4c(c3)nnn4C3CCCC3)n2)c1 [Compound 118, 1-cyclopentyl-5-{3-[3-(trifluoromethyl)phenyl]-1,2,4-oxadiazol-5-yl}-1H-1,2,3-benzotriazole] | – | <6.5 | – | <5 | – | –
20 | COc1ccc(-c2noc(-c3ccc4c(c3)nnn4CC(C)(C)O)n2)c(C)c1 [Compound 647, 1-{5-[3-(4-methoxy-2-methylphenyl)-1,2,4-oxadiazol-5-yl]-1H-1,2,3-benzotriazol-1-yl}-2-methylpropan-2-ol] | > 75 | >6.5 | > 75 | >5 | – | –
21 | CC(C)n1nnc2cc(-c3noc(C45C6C7C4C4C5C6C74C(=O)O)n3)ccc21 (stereo not drawn) [Compound 379] | < 75 | – | < 75 | – | > 0.316 | > 10
22 | FC(F)(F)Oc1ccccc1-c1nc(-c2ccc3c(c2)nnn3C2CCCC2)no1 [Compound 84, 3-(1-cyclopentyl-1H-benzo[d][1,2,3]triazol-5-yl)-5-(2-(trifluoromethoxy)phenyl)-1,2,4-oxadiazole] | < 75 | <6.5 | > 75 | >5 | – | –
23 | COc1cncc(-c2nc(-c3ccc4c(c3)nnn4C(C)C)no2)c1 [Compound 272, 3-(1-isopropyl-1H-benzo[d][1,2,3]triazol-5-yl)-5-(5-methoxypyridin-3-yl)-1,2,4-oxadiazole] | < 75 | <6.5 | < 75 | <5 | – | –
24 | CC(C)(CO)n1nnc2cc(-c3noc(-c4cccnc4F)n3)ccc21 [Compound 643, 2-(5-(5-(2-fluoropyridin-3-yl)-1,2,4-oxadiazol-3-yl)-1H-benzo[d][1,2,3]triazol-1-yl)-2-methylpropan-1-ol] | > 75 | <6.5 | < 75 | <5 | – | –
25 | CC(C)n1nnc2cc(-c3nc(-c4ccccn4)no3)ccc21 [Compound 241, 1-(propan-2-yl)-5-[3-(pyridin-2-yl)-1,2,4-oxadiazol-5-yl]-1H-1,2,3-benzotriazole] | > 75 | <6.5 | > 75 | <5 | – | –
26 | CCC1(CC)CC(=O)c2cc(-c3nc(-c4ccc(S(=O)(=O)NC)cc4)no3)ccc2O1 [Compound 266, 4-(5-(2,2-diethyl-4-oxochroman-6-yl)-1,2,4-oxadiazol-3-yl)-N-methylbenzenesulfonamide] | – | <6.5 | – | >5 | – | –
27 | CC(C)Nc1ccc(-c2ncc(-c3ccc4c(c3)nnn4C(C)C)cn2)cc1C#N [Compound 596, 5-(5-(1-isopropyl-1H-benzo[d][1,2,3]triazol-5-yl)pyrimidin-2-yl)-2-(isopropylamino)benzonitrile] | – | >6.5 | – | >5 | – | –
28 | CCC1(CC)CC(=O)c2cc(-c3nc(-c4cccc(C)c4)no3)ccc2O1 [Compound 225, 2,2-diethyl-6-(3-(m-tolyl)-1,2,4-oxadiazol-5-yl)chroman-4-one] | – | <6.5 | – | >5 | – | –
29 | CSc1ccc(-c2nc(-c3ccc4c(c3)nnn4C3CCCC3)no2)cc1 [Compound 237, 3-(1-cyclopentyl-1H-benzo[d][1,2,3]triazol-5-yl)-5-(4-(methylthio)phenyl)-1,2,4-oxadiazole] | < 75 | <6.5 | < 75 | <5 | – | –
